Test results reported in patent US9421157B2, “Use of C-glycoside derivatives as pro-desquamating active agents” (L'OREAL, priority 2006, dated 2016).

System: corneodesmosine
Test: Desquamating activity: immunodetection of corneodesmosine on varnish strippings of dry skin after incubation with product
Assay type: biochemical
Settings: 7% by weight in Arlacel/Myrj base, 5 days at 37° C., 70% relative humidity
Protocol: In this test, corneodesmosine is sought by immunodetection after incubation. Corneodesmosine is one of the key markers of desquamation of […]. It is studied on an immunoblot after electrophoresis separation and transfer onto a membrane.
3×3.5 cm rectangles are cut out of varnish strippings performed on the calf area of legs bearing dry skin. They are each treated with 42 mg of product (4 mg/cm^2). Controls and tests are performed in parallel. A blank without product is prepared under the same conditions.
The tests are incubated at 37° C. and 70% relative humidity for 5 days. The controls are stored for 5 days at −20° C. Thus, 5 tests and 5 controls are obtained.
For each of the samples, acetone powders are prepared and weighed out. The proteins are extracted with 100 μl/mg of whole Laemmli buffer. They are assayed according to the Bradford method. The protein content of each sample is adjusted and allows a direct comparison of the various samples. The proteins are separated by SDS-Page electrophoresis on 12% acrylamide gel.
After transferring the proteins onto a PVDF membrane, the immunodetection is performed with the anticorneodesmosine antibody G3619 (Guy Serre) at 1/12500 according to a standard western blot technique. Revelation is performed by chemiluminescence. The bands detected by the Fluor Smax machine (Biorad) are quantified with the quantity-one software (Biorad).

Compound | degradation of corneodesmosine (result in words)
CC(O)C[C@@H]1OC[C@@H](O)[C@H](O)[C@H]1O (stereo partly drawn) [C-β-D-xylopyranoside-2-hydroxypropane] | positive effect
OCC(O)CO [Glycerol] | substantial degradation of corneodesmosine
